The results in this text go back to paper PMC4369186 (European journal of pharmacology, 2015).

Where two headings read alike, the source gives them in different places.

The target of the assay is T1, hVAChT (Homo sapiens, UniProt Q16572).
T1 sequence (Q16572 1-532): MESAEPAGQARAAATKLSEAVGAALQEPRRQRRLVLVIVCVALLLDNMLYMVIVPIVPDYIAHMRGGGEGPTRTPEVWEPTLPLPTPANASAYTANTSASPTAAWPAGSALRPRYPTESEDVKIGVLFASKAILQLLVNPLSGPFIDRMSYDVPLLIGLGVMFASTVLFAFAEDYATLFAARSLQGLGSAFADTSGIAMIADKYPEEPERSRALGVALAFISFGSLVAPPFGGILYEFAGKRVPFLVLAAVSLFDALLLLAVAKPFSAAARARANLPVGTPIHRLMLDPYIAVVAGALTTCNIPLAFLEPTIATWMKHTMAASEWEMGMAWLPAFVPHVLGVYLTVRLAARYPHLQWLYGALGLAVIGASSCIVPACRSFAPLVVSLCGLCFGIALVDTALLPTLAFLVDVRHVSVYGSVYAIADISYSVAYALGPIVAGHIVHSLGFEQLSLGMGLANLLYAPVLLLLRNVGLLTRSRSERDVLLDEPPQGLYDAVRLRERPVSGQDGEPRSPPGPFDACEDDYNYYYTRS
The assay is described as follows: Competitive binding assay with. The conditions noted are these: for inhibition of (-)-[^3H]TZ659 binding to VAChT: competitive binding studies, other CNS receptor ligands.

Setting [1] is: radioligand (-)-[^3H]TZ659 2 nM, test ligands 0.1 nM to 10 μM, 60 min, 25 °C.

By Ki is commonly meant a dissociation constant, usually derived from enzyme kinetics or from competition with a known ligand. A low value points to higher affinity.

As for `CC(C)=CCN1CC[C@]2(C)c3cc(O)ccc3C[C@H]1[C@H]2C` [(+)-Pentazocine], the Ki is above 1000 nM and the “inhibition of (-)-[^3H]TZ659 binding to VAChT” value (shortened to “inhibition”) was “No inhibition”.
Regarding `CCc1cc(Cl)c(OC)c(C(=O)NC[C@@H]2CCCN2CC)c1O` [S-(-)-Eticlopride], the “inhibition” value is listed as “No inhibition”. Under setting [1], this compound came in with a Ki above 1000 nM.
Taken in the same sequence, the figures for `COc1cc2c(cc1OC)[C@H]1C[C@@H](O)[C@H](CC(C)C)CN1CC2` [DTBZ] were “No inhibition” and above 1000 nM.
Take `COc1cc2c(cc1OC)CN(CCCCNC(=O)c1cc(C)ccc1OCCF)CC2` [ISO-1]: the “inhibition” value is given as “No inhibition”. The Ki under setting [1] is above 1000 nM.
Taken in the same sequence, the figures for `COc1ccccc1N1CCN(CC(C(=O)NC(C)(C)C)c2ccccc2)CC1` (stereo not drawn) [WAY-100135] were “No inhibition” and above 1000 nM.
Regarding `Cn1cc(-c2ccncc2)c(-c2ccc(OCc3ccc4ccccc4n3)cc2)n1` [MP-10], the “inhibition” value is reported as “No inhibition”. Besides, the Ki under setting [1] was above 1000 nM.
